Experimental data taken from patent US20230049952A1, “METHODS AND COMPOUNDS FOR RESTORING MUTANT P53 FUNCTION” (PMV Pharmaceuticals, Inc., priority 2020, published 2023).

Target: BSEP (Homo sapiens, UniProt O95342)
Assay: BSEP inhibition: TCA uptake into BSEP-expressing vesicles
Format: in vitro ADME
Conditions: 10 μM test article
Description: An assay to measure BSEP-mediated TCA uptake into inside-out BSEP-expressing vesicles was used. […] The reaction was initiated by adding 5 mM ATP (adenosine 5′-triphosphate) as the energy source for BSEP. Negative controls were run in parallel, using 5 mM AMP (adenosine 5′-monophosphate) in place of ATP. The reactions were carried out in 96-well plates incubated in a humidified incubator (37° C. 5% CO2) for 30 minutes. After incubation, the vesicle-associated TCA and free TCA were separated by rapid filtration through a glass-fiber filter plate under vacuum.
All samples were assayed by liquid chromatography-tandem mass spectrometry (LC-MS/MS) using electrospray ionization. Liquid Chromatography was performed using a Thermo BDS Hypersil C18 30×2.1 mm, 3 μm, with guard column. […] The Aqueous Reservoir (A) was 90% water, 10% buffer. The Organic Reservoir (B) was 90% acetonitrile, 10% buffer. The Flow Rate was 700 μL/minute. The Total Run Time for the liquid chromatography was 2.5 minutes. The Autosampler was 20 μL injection volume. The Autosampler Wash was water/methanol/2-propanol: 1/1/1; with 0.2% formic acid. Mass Spectrometry was performed on the PE SCIEX API 4000 instrument. The interface was Turbo Ionspray. The mode was Multiple reaction monitoring. The method was performed over 2.5 minute duration.

[1] = 1 μM TCA, BSEP vesicles, 30 minutes

Chain of BSEP (O95342 whole entry, species assumed): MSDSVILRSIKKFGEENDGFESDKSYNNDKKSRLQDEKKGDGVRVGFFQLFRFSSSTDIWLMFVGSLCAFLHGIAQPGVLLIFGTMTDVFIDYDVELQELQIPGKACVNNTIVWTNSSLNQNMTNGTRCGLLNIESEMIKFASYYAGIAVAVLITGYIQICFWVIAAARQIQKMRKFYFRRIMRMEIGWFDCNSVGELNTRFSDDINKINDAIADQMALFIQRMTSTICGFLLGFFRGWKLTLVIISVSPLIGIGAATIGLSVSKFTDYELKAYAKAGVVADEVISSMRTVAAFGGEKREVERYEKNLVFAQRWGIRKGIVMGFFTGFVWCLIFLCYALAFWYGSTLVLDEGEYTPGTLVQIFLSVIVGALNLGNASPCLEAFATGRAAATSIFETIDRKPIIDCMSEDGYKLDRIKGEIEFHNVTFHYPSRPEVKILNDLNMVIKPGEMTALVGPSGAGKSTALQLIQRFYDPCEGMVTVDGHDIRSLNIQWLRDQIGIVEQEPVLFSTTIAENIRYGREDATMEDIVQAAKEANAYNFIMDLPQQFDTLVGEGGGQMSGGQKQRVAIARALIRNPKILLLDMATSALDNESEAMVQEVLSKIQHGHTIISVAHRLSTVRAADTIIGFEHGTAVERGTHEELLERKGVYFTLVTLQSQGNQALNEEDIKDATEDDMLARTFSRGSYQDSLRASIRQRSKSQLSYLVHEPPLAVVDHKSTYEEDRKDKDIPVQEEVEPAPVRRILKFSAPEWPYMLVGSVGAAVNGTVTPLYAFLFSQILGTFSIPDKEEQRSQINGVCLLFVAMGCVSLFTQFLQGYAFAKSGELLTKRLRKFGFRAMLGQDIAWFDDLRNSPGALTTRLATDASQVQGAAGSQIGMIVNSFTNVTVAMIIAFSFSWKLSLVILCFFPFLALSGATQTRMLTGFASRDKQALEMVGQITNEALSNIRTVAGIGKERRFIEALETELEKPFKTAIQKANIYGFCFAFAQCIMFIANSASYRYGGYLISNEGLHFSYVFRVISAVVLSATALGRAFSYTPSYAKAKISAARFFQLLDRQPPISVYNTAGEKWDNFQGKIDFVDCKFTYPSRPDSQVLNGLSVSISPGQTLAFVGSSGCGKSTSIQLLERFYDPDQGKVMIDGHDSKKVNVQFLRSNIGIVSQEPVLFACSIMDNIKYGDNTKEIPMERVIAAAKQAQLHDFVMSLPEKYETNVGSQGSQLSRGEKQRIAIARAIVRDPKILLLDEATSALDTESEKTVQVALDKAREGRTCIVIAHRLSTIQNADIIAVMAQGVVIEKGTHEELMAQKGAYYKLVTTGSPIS

CCn1c(C#CCNc2ccccc2)cc2cc(CNC3CCN(C)CC3)ccc21 [Compound 1, 1-Anilino-3-{1-ethyl-5-[(1-methyl-4-piperidylamino)methyl]-1H-indol-2-yl}-2-propyne]
BSEP Inhibition Potential Classification: Negative (Percent inhibition <50%: Negative) | TCA Concentration, Cofactor AMP, AVG (1 μM TCA, AMP negative control): 1.97 nM | TCA Concentration, Cofactor AMP, R1 (1 μM TCA, AMP negative control): 1.50 nM | TCA Concentration, Cofactor ATP, AVG [1]: 85.5 nM | TCA Concentration, Cofactor ATP, R1 [1]: 87. nM | BSEP Inhibition Classification (TCA 1 μM): negative | Percent Inhibition (negative values reported as 0): 0%
